System: Balb/c mice
Test: Polypeptide chip-based vaccine immunogenicity scoring system
Assay type: in vivo
Design: key to A2: whether the 95 percentile of the last sampling is increased compared with the end point: Y = rise; N = no rise
Conditions: Embodiment III, polypeptide-KLH; for A1: difference between a highest median and a D 0 median (95 percentile) / A2: whether the 95 percentile of the last sampling is increased compared with the end point: Mix1-10; for Total single peptide: A*3 + B*2 + C*1; for A: 95 percentile grouping number score / B: Mouse performance score: total score = 5; for C1: #A timing-sequence response peptide fragment set / C2: #B vaccine specificity peptide fragment set / C3: Intersection of A and B / C4: Percentage of the intersection in set B / C: Timing-sequence response and specificity score: value of the whole mix

| Sequence | B1: D 0-D 14 95 percentile rise in the number of mice | B2: D 0-D 21 95 percentile rise in the number of mice | B3: D 14-D 21 95 percentile rise in the number of mice | B4: D 21-D 28 95 percentile rise in the number of mice | A1: difference between a highest median and a D 0 median (95 percentile) | A2: whether the 95 percentile of the last sampling is increased compared with the end point | Total single peptide | A: 95 percentile grouping number score | B: Mouse performance score | C1: #A timing-sequence response peptide fragment set | C2: #B vaccine specificity peptide fragment set | C3: Intersection of A and B | C4: Percentage of the intersection in set B | C: Timing-sequence response and specificity score |
| --- | --- | --- | --- | --- | --- | --- | --- | --- | --- | --- | --- | --- | --- | --- |
| NSVAYSNNS (SARS-CoV-2) [SEQ ID NO:9] | 3 | 3 | 1 | 1 | 0.07 | N | 10.3 | 2 | 1.9 | 145 | 529 | 1 | 0.189 | 0.5 |
| NVAKSEFDRDAA [SEQ ID NO:26] | 3 | 3 | 1 | 0 | 0.06 | N | 6.9 | 1 | 1.7 | 352 | 541 | 1 | 0.185 | 0.5 |
| PLQPELDSFKEE [SEQ ID NO:37] | 3 | 2 | 1 | 1 | 0.09 | Y | 15.9 | 4 | 1.7 | 230 | 251 | 1 | 0.398 | 0.5 |
| QELGKYEQY (SARS-CoV-2) [SEQ ID NO:38] | 3 | 3 | 2 | 1 | 0.10 | Y | 18.2 | 4.5 | 2.1 | 352 | 541 | 1 | 0.185 | 0.5 |
| RGGSYTNDKAC (SARS-CoV-2) [SEQ ID NO:2] | 3 | 3 | 2 | 0 | 0.14 | N | 18.3 | 4.5 | 1.9 | 288 | 268 | 4 | 1.493 | 1 |
| RLFRKSNLK (SARS-CoV-2) [SEQ ID NO:35] | 3 | 3 | 2 | 0 | 0.10 | N | 16.3 | 4 | 1.9 | 352 | 541 | 1 | 0.185 | 0.5 |

From patent US20230136600A1, “Method and device for screening antigen epitope polypeptide” (priority 2020, published 2023)
